{
  "source": "patent US20060128695A1",
  "about": "“Cyclic nucleotide phosphodiesterase inhibitors, preparation and uses” (NEURO3D, priority 2002, published 2006)",
  "format_in_all_cases": "biochemical, bovine",
  "key": {"PDE2": {"molecular_target": "T1, PDE2 (Bos taurus, UniProt P14099)", "T1 construct": "PDE2 was prepared from bovine endothelial cells by the same methods; endogenous in cells; host or cells: bovine endothelial cells", "T1 sequence (P14099 1-921)": "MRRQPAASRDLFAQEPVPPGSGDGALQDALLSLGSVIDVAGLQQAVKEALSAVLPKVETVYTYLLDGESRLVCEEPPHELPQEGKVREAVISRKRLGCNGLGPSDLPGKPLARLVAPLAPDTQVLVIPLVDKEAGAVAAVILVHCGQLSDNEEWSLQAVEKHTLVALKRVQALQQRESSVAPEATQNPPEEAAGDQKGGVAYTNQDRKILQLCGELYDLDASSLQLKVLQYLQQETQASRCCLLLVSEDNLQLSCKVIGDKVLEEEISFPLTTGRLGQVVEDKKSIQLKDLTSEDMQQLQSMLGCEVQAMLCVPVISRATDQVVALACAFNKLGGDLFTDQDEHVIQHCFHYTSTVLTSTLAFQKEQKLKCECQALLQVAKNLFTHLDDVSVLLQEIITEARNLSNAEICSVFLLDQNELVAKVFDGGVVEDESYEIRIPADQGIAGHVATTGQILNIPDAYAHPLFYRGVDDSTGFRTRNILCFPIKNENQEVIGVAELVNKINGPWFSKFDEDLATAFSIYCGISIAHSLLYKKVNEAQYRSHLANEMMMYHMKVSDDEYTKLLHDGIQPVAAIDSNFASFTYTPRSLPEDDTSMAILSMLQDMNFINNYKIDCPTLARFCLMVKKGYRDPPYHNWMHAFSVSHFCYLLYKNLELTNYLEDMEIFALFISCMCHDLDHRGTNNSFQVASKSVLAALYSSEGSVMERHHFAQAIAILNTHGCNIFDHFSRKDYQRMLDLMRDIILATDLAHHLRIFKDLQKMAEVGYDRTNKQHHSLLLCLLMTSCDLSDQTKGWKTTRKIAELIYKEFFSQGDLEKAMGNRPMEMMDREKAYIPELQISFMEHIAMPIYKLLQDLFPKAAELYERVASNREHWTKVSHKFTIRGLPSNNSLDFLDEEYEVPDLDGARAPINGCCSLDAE", "assay": "Inhibition of PDE2, radioenzymatic phosphodiesterase assay"}, "PDE1": {"system": "PDE1", "assay": "Selectivity: inhibition of PDE1, radioenzymatic phosphodiesterase assay", "settings": "10 μM test compound; vascular smooth muscle", "procedure": "(§1) A 3 g segment of bovine aortic media cut into pieces with scissors was homogenized with an ultra-turrax then a potter glass/glass homogenizer in 7 volumes by weight of buffer A containing a protease inhibitor cocktail (20 mM Tris-HCl, 0.25 M saccharose, 2 mM magnesium acetate, 1 mM dithiothreitol, 5 mM EGTA, 2000 U/ml aprotinin, 10 mg/l leupeptin and 10 mg/l soya trypsic inhibitor). The homogenizate was centrifuged at 105,000 g for 1 hour. The supernatant was loaded on a DEAE-Sephacel column (15 x 1.6 cm) pre-equilibrated with buffer B (buffer A without the saccharose, EGTA and protease inhibitors). The column was washed until there was no detectable absorption at 280 nm, then eluted with a linear gradient of NaCl (0-0.5 M) in buffer B. 3-ml fractions were collected and enzyme activity was determined under the conditions described hereinbelow to localize the different enzymes PDE1, PDE3, PDE4 and PDE5 which were aliquoted and frozen at −80° C. (Lugnier et al., Biochem. Phamacol., 1986, 35: 1746-1751). PDE2 was prepared from bovine endothelial cells by the same methods (Lugnier and Schini, Biochem. Pharmacol., 1990, 39: 75-84).\n(§2) Cyclic nucleotide phosphodiesterase activity was determined by a radioenzymatic method using tritium-labelled cyclic GMP or AMP (1 μM) as substrate (Lugnier et al., 1986). ^3H-labelled adenosine or guanosine monophosphate formed by hydrolysis of the radiolabelled cyclic nucleotide was then converted to ^3H-labelled adenosine or guanosine in a second reaction with […] in excess. The nucleoside formed was separated from the nucleotides by anion exchange chromatography. Nucleoside radioactivity was determined by liquid scintillation counting. […]\n(§3) The activity of the compounds was evaluated on other phosphodiesterase isoforms, particularly basal state or calmodulin-activated PDEl from vascular smooth muscle, PDE3, PDE4 and PDE5 from vascular smooth muscle.\n(§4) The results obtained are presented in Tables 1 and 2 hereinbelow and are expressed as the percentage inhibition of enzymatic activity produced by […] of the test compound."}, "PDE3": {"molecular_target": "T2, PDE3 (Bos taurus, UniProt A0A3Q1M1E8)", "T2 sequence (A0A3Q1M1E8 1-1126)": "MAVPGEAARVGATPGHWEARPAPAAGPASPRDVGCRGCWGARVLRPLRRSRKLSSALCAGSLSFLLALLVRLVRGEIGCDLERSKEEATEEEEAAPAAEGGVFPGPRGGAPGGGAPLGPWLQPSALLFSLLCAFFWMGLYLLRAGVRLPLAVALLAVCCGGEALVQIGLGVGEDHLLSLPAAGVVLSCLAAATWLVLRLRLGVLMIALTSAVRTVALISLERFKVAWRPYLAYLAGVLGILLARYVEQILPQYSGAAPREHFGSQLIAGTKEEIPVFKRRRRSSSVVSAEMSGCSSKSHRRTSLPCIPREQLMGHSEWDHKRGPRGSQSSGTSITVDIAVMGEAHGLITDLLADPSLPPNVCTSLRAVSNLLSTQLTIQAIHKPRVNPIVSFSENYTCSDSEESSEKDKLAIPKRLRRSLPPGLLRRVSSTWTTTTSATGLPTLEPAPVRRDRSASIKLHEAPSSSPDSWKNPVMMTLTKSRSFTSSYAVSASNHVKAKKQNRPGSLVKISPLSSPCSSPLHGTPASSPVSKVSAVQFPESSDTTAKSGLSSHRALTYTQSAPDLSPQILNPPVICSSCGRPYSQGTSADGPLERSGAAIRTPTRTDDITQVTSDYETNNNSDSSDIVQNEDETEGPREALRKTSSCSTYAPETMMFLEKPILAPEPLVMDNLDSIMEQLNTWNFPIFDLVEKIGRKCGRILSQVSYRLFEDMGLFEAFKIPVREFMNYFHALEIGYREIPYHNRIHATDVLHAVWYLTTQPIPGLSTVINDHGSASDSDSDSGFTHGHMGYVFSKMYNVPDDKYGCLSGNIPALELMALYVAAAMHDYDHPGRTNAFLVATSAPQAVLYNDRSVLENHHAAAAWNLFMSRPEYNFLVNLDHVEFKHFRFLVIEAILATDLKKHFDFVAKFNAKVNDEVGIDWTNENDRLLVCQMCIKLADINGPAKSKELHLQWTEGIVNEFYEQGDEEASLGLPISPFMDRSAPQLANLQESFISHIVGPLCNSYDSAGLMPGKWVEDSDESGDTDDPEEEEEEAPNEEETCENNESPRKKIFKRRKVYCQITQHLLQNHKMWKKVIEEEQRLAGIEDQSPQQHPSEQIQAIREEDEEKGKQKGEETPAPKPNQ", "assay": "Selectivity: inhibition of PDE3, radioenzymatic phosphodiesterase assay", "settings": "10 μM test compound; vascular smooth muscle; read-out: PDE3 percentage inhibition at 10 μM", "procedure": "as §1, §2, §3, §4"}, "PDE4": {"system": "PDE4", "assay": "Selectivity: inhibition of PDE4, radioenzymatic phosphodiesterase assay", "settings": "10 μM test compound; vascular smooth muscle", "procedure": "as §1\n(§5) Cyclic nucleotide phosphodiesterase activity was determined by a radioenzymatic method using tritium-labelled cyclic GMP or AMP (1 μM) as substrate (Lugnier et al., 1986). ^3H-labelled adenosine or guanosine monophosphate formed by hydrolysis of the radiolabelled cyclic nucleotide was then converted to ^3H-labelled adenosine or guanosine in a second reaction with […] in excess. The nucleoside formed was separated from the nucleotides by anion exchange chromatography. Nucleoside radioactivity was determined by liquid scintillation counting. Enzymatic incubations were carried out under conditions allowing no more than 15% hydrolysis of the substrate; each point was performed in duplicate.\nas §3, §4"}, "PDE5": {"molecular_target": "T3, PDE5 (Bos taurus, UniProt Q28156)", "T3 construct": "localize the different enzymes PDE1, PDE3, PDE4 and PDE5 which were aliquoted and frozen; from tissue; host or cells: bovine aortic media (vascular smooth muscle)", "assay": "Selectivity: inhibition of PDE5, radioenzymatic phosphodiesterase assay", "settings": "10 μM test compound; vascular smooth muscle; read-out: PDE5 percentage inhibition at 10 μM", "procedure": "as §1, §5, §3, §4"}},
  "data": [
    {"smiles": "COc1cc2c(cc1OC)N(C)C(=O)CN=C2c1cccc(C(F)(F)F)c1", "note": "[Compound 4p, 7,8-dimethoxy-1-methyl-[5-(3-trifluoromethyl)phenyl]-1,3-dihydro-2H-1,4-benzodiazepin-2-one]", "values": [
      {"measurement": "IC50", "setting": "PDE2", "result": 1800, "unit": "nM"},
      {"measurement": "PDE1 percentage inhibition at 10 μM", "setting": "PDE1", "result": 25, "unit": "%"},
      {"measurement": "inhibition at 10 µM", "setting": "PDE3", "result": 58, "unit": "%"},
      {"measurement": "PDE4 percentage inhibition at 10 μM", "setting": "PDE4", "result": 19, "unit": "%"},
      {"measurement": "inhibition at 10 µM", "setting": "PDE5", "result": 26, "unit": "%"}
    ]},
    {"smiles": "COc1cc2c(cc1OC)N(C)C(=O)CN=C2c1cccnc1", "note": "[Compound 17b, 7,8-dimethoxy-1-methyl-5-(3-pyridyl)-1,3-dihydro-1,4-benzodiazepin-2-one]", "values": [
      {"measurement": "IC50", "setting": "PDE2", "result": 1500, "unit": "nM"},
      {"measurement": "PDE1 percentage inhibition at 10 μM", "setting": "PDE1", "result": 10, "unit": "%"},
      {"measurement": "inhibition at 10 µM", "setting": "PDE3", "result": 36, "unit": "%"},
      {"measurement": "PDE4 percentage inhibition at 10 μM", "setting": "PDE4", "result": 8, "unit": "%"},
      {"measurement": "inhibition at 10 µM", "setting": "PDE5", "result": 14, "unit": "%"}
    ]}
  ]
}
